In PubChem BioAssay (NCI) one finds TGI and GI50 data, which are given here for four molecules.

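1) Cells in 96-well plates. 2) Compound, 48 h, 5 concentrations. 3) Linear interpolation between surrounding doses. 4) Unreached endpoint = highest concentration. At the GI50, growth is halved. The concentration for full growth arrest is given as TGI.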

Some test systems named below: EKVX NSCLC; UO-31 renal; SF-268 CNS; HCT-15 colon; HCT-116 colon; CCRF-CEM leukemia; HT29 colon; KM12 colon; ACHN renal; A498 renal.
Common to all, as to experiment: DTP human tumour cell line panel, 48 h

As to `CCOC(=O)CCn1ncc(Cl)c(Cl)c1=O`, the TGI (in general, the concentration giving total growth inhibition) was 36 µM in the test with EKVX NSCLC; 29.3 µM in the test on UO-31 renal; 21.6 µM in the test with SF-268 CNS; 4.69 µM in the test on HCT-15 colon; 24.2 µM with HCT-116 colon; 9.76 µM in the test on CCRF-CEM leukemia. Besides, the TGI with HT29 colon is 14.2 µM; with KM12 colon it was 20 µM; with ACHN renal, 33.7 µM; in the test with A498 renal, 39.6 µM.
On to `Cc1nc(Nc2ccccn2)sc1C(=O)/C=C/c1ccc(Cl)cc1`, for which the GI50 – broadly, the concentration at which growth is held to half of that of the control – in the test on EKVX NSCLC is 0.846 µM; in the test on UO-31 renal it was 0.662 µM; in the test on SF-268 CNS, 0.974 µM; in the test with HCT-15 colon it was 0.355 µM; with HCT-116 colon, 0.381 µM; in the test with CCRF-CEM leukemia, 0.445 µM. Besides, the GI50 in the test with HT29 colon was 0.47 µM; in the test on KM12 colon it was 0.377 µM; with ACHN renal it was 0.559 µM; in the test with A498 renal it was 0.143 µM. Moreover, the TGI with EKVX NSCLC is greater than 100 µM; with UO-31 renal, 15 µM; in the test on SF-268 CNS, greater than 100 µM; in the test with HCT-15 colon, greater than 100 µM; in the test on HCT-116 colon, greater than 51.8 µM; in the test on CCRF-CEM leukemia it was greater than 100 µM. The TGI with HT29 colon came to 47.5 µM; in the test with KM12 colon it was 15.9 µM; in the test on ACHN renal it was 31 µM; with A498 renal, 0.626 µM.
For `C#Cc1c(C)c(/C=C/C(C)=C/C(=O)OC)n(C)c1C`, the TGI in the test on EKVX NSCLC, in the test with UO-31 renal, in the test with SF-268 CNS, in the test with HCT-15 colon, in the test on HCT-116 colon and in the test with CCRF-CEM leukemia was greater than 100 µM each time. Besides, the TGI in the test with HT29 colon, with KM12 colon, in the test on ACHN renal and in the test on A498 renal was greater than 100 µM each time.
Consider `CN1CCc2c1nc(-c1ccc(Cl)cc1)c1c2N(C)CC1`, for which the TGI in the test on EKVX NSCLC was greater than 100 µM; in the test with UO-31 renal, 32.5 µM; in the test on SF-268 CNS it was greater than 100 µM; in the test with HCT-15 colon, greater than 100 µM; in the test with HCT-116 colon, 18.9 µM; with CCRF-CEM leukemia, 55.2 µM. Further, the TGI with HT29 colon worked out at 45.4 µM; in the test on KM12 colon it was 45.7 µM; in the test on ACHN renal, 55.6 µM; in the test on A498 renal, 62.6 µM.
